Laboratory results as given in patent US20070259909A1, “Novel Difluoroethoxy-Substituted Hydroxy-6-Phenylphenanthridines and Their Use as Pde4 Inhibitors” (ALTANA PHARMA AG, priority 2004, published 2007).

Target: T1, PDE4B2 (Homo sapiens, UniProt Q07343)
T1 construct: made in house; host or cells: SF21 insect cells (baculovirus; virus generated in SF9 cells)
Assay: PDE4B2 [3H]cAMP SPA enzyme assay (inhibition of PDE4 activity)
Format: biochemical
Settings: recombinant PDE4B2 (GB no. M97515) expressed in SF21 insect cells; cAMP substrate; 37° C., 15 min; read-out: -log IC50(mol/l), Inhibition of the PDE4 activity (converted)
Description: The PDE4B2 (GB no. M97515) was a gift of Prof. M. Conti (Stanford University, USA). It was amplified from the original plasmid (pCMV5) via PCR with primers Rb9 (5′-[…]-3′) and Rb10 (5′-[…]-3′) and cloned into the pCR-Bac vector (Invitrogen, Groningen, NL).
The recombinant baculovirus was prepared by means of homologous recombination in SF9 insect cells. The expression plasmid was cotransfected with Bac-N-Blue (Invitrogen, Groningen, NL) or Baculo-Gold DNA (Pharmingen, Hamburg) using a standard protocol (Pharmingen, Hamburg). Wt virus-free recombinant virus supernatant was selected using plaque assay methods. After that, high-titre virus supernatant was prepared by amplifying 3 times. […]
The SF21 insect cells were resuspended, at a concentration of approx. 10^7 cells/ml, in ice-cold (° C.) homogenization buffer (20 mM Tris, pH 8.2, containing the following additions: 140 mM NaCl, 3.8 mM KCl, 1 mM EGTA, 1 mM MgCl2, 10 mM P-mercaptoethanol, 2 mM benzamidine, 0.4 mM Pefablock, 10 μM leupeptin, […] pepstatin A, 5 μM trypsin inhibitor) and disrupted by ultrasonication. […] The protein content was determined by the Bradford method (BioRad, Munich) using BSA as the standard. […]
Representative inhibitory values determined for the compounds according to the invention follow from the following table A, in which the numbers of the compounds correspond to the numbers of the Examples.

T1 sequence (Q07343 1-564 isoform Q07343-2): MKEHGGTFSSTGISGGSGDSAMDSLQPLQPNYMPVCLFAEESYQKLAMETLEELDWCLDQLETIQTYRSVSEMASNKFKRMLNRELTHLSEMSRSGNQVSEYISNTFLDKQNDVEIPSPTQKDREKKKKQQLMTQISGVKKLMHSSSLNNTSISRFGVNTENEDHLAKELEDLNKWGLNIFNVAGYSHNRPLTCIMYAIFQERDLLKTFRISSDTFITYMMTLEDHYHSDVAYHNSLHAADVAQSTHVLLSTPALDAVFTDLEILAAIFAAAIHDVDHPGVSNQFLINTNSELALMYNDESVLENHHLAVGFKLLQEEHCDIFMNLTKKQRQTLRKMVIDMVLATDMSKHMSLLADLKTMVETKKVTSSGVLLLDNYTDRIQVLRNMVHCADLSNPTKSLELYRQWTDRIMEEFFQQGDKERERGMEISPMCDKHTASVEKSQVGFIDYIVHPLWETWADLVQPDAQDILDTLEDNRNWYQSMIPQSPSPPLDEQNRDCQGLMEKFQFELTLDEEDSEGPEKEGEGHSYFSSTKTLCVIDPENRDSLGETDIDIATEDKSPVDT

IC50 | SMILES
1.82 nM | COc1cc2c(cc1OCC(F)F)[C@H]1C[C@H](O)CC[C@H]1N=C2c1ccc(C#N)cc1 (racemic) [Compound 3, 4-[(2RS,4aRS,10bRS)-9-(2,2-Difluoro-ethoxy)-2-hydroxy-8-methoxy-1,2,3,4,4a,10b-hexahydro-phenanthridin-6-yl]-benzonitrile]
0.708 nM | COc1cc2c(cc1OCC(F)F)C1CC(O)CCC1N=C2c1ccc(F)cc1 (racemic) [Compound 1, (2RS,4aRS,10bRS)-9-(2,2-Difluoroethoxy)-6(4fluorophenyl)-8-methoxy-(1,2,3,4,4a,10b)-hexahydrophenanthridin-2-ol]
